Publication PMC4835244 (Stem Cells Translational Medicine, 2016)
Structures can show the parent of a compound that is named as a salt. Where two headings read alike, the source gives them in different places.

Tests used:
[1] = test system: ARE/Nrf2 pathway (CellSensor ARE-bla HepG2 cell line); experiment: ARE-bla β-lactamase reporter gene assay; type: cell-based; settings: HepG2 cells
p53 = settings: ref PubChem AID 720552; cited from earlier work
[2] = test system: activator protein 1 (AP1); settings: assays previously performed; cited from earlier work
heat shock element (HSE) = settings: ref PubChem AID 743228; cited from earlier work
in vitro = settings: human

| Compound | Activation of ARE-β-lactamase expression [1] | Cytotoxicity to HepG2 cells (CTG) (HepG2 cells; human, 18 h) | Shape of activity in the ARE-bla assay [1] | also measured |
| --- | --- | --- | --- | --- |
| O=C1OC(=O)[C@H]2[C@@H]1[C@@H]1CC[C@H]2O1 [Norcantharidin] | active in only one repetition | – | – | – |
| C/C=C(/C)C(=O)O[C@H]1C(C)=C2[C@H]([C@@H]1OC(=O)CCCCCCC)[C@@](C)(OC(C)=O)C[C@H](OC(=O)CCC)[C@@]1(O)[C@H]2OC(=O)[C@@]1(C)O [Thapsigargin] | – | cytotoxic to HepG2 cells | – | – |
| OC[C@H]1O[C@H]([S-])[C@H](O)[C@@H](O)[C@@H]1O.[Au+] [Aurothioglucose] | directly activated ARE-β-lactamase expression | – | bell shaped | Cytotoxicity to HepG2 cells (CTG) (HepG2 cells): toxic at the highest concentrations; Activity in β-lactamase reporter gene assay for p53 (p53): not active |
| COc1cccc2c1C(=O)c1c(O)c3c(c(O)c1C2=O)C[C@@](O)(C(=O)CO)C[C@@H]3O[C@H]1C[C@H](N2CCO[C@H](OC)C2)[C@H](O)[C@H](C)O1 [Nemorubicin] | – | cytotoxic to HepG2 cells | – | – |
| Cc1ccccc1/C=C/C1=NCCN1 [Metrazoline oxalate] | directly activated ARE-β-lactamase expression | not toxic to HepG2 cells at the concentrations tested | simple increase in ARE activation | – |
| c1ccc2c(c1)OCC(C1=NCCN1)O2 (centres unmarked) [Idazoxan hydrochloride] | directly activated ARE-β-lactamase expression | not toxic to HepG2 cells at the concentrations tested | simple increase in ARE activation | Activity in β-lactamase reporter gene assay for AP1 [2]: not active in any of these assays; Activity in β-lactamase reporter gene assay for HSE (heat shock element (HSE)): not active in any of these assays; Activity in β-lactamase reporter gene assay for p53 (p53): not active in any of these assays |
| COc1c(C)c2c(c(O)c1C/C=C(\C)CCC(=O)O)C(=O)OC2 [Mycophenolic acid] | active in only one repetition | – | – | – |
| O=C1c2ccccc2C(=O)c2c(NCCc3ccc(O)cc3)ccc(NCCc3ccc(O)cc3)c21 [JFD00244] | active in only one repetition | – | – | – |
| CC(C)(C)c1ccc(C(O)CCCN2CCC(C(O)(c3ccccc3)c3ccccc3)CC2)cc1 (centres unmarked) [Terfenadine] | – | – | – | IC50 at 24 h (in vitro): 6.7 µM |
| CC(C)(C)c1ccc(C(=O)CCCN2CCC(OC(c3ccccc3)c3ccccc3)CC2)cc1 [Ebastine] | – | cytotoxic to HepG2 cells | – | – |
